Tested on: human aortic smooth muscle cells (HASMCs)
Assay: Intracellular NO determination using DAF-FM DA
Assay type: cell-based
Settings: increasing ABH concentrations 1 µM-5 mM

With `N[C@@H](CCCCB(O)O)C(=O)O` [ABH, S-2-amino-6-boronic acid] the “intracellular NO and/or N2O3 (DAF-FM DA fluorescence)” value was “the amount of intracellular NO rises with increasing concentrations of ABH”.
